Data: patent US5011840A, “Imidazolidinedione derivatives in diabetes treatment” (Pfizer Inc., priority 1989, dated 1991)

Legend:
[1] = system: sorbitol levels in nerve and lens of diabetic subjects; experiment: Lowering of sorbitol levels in sciatic/peripheral nerve and lens of diabetic subjects (general statement); format: in vivo; settings: qualitative statement
Description: (§1) The activity of the compounds of the present invention, as agents for the control of chronic diabetic complications, is determined by their ability to successfully pass one or more of the following standard biological or pharmacological tests, viz., (1) measuring their ability to inhibit the enzyme activity of isolated aldose reductase; (2) measuring their ability to reduce or inhibit sorbitol accumulation in the sciatic nerve and lens of acutely streptozotocinized (i.e., diabetic) rats; (3) measuring their ability to reverse already-elevated sorbitol levels in the sciatic nerve and lens of chronic streptozotocin-induced diabetic rats; (4) measuring their ability to prevent or inhibit galactitol formation in the lens of acutely galactosemic rats, and (5) measuring their ability to delay cataract formation and reduce the severity of lens opacities in chronic galactosemic rats.

aldose reductase = target: T1, aldose reductase (Homo sapiens, UniProt P15121); experiment: Inhibition of aldose reductase enzyme activity (procedure of Hayman et al. as modified by Sestanj et al.); format: biochemical; settings: for inhibition at 10 µM: 10^-5 M; for inhibition at 1 µM: 10^-6 M; for inhibition at 0.1 µM: 10^-7 M; for aldose reductase inhibition (in words): qualitative statement
T1 construct: partially purified aldose reductase enzyme obtained from human placenta; from tissue; host or cells: human placenta
Description: as §1
The following 5-substituted imidzolidinedione derivatives of Examples 1 and 4, respectively, were tested for their ability to reduce or inhibit aldose reductase enzyme activity via the procedure of S. Hayman et al., as described in the Journal of Biological Chemistry, Vol. 240, p. 877 (1965) and as modified by K. Sestanj et al. in U.S. Pat. No. 3,821,383. In each case, the substrate employed was partially purified aldose reductase enzyme obtained from human placenta.

[2] = system: sorbitol accumulation in the sciatic nerve; experiment: Inhibition of sorbitol accumulation in the sciatic nerve of streptozotocinized (diabetic) rats; format: in vivo, rat
Excerpt: (§2) As previously indicated, the 5-substituted imidazolidinedione compounds of this inventon are readily adapted to therapeutic use as aldose reductase inhibitors for the control of certain chronic diabetic complications, in view of their ability to reduce lens and peripheral nerve sorbitol levels in diabetic subjects to a statistically significant degree. […] Furthermore, the herein described compounds of this invention can be administered by either the oral, topical or parenteral routes of administration. […]
as §1, with “rats. […]” for “rats.”

[3] = system: sorbitol accumulation in the lens; experiment: Inhibition of sorbitol accumulation in the lens of streptozotocinized (diabetic) rats; format: in vivo, rat
Excerpt: as §2
as §1, with “rats. […]” for “rats.”

[4] = partially purified enzyme from human placenta, read-out: Percent Inhibition of aldose reductase activity
[5] = 25 mg./kg. orally at 4, 8 and 24 hours after streptozotocin, measured at 27 hours, vs untreated control
[6] = diabetic rats, oral, 25 mg./kg.

| inhibition at 100 µM (aldose reductase; 10^-4 M, partially purified enzyme from human placenta, read-out: Percent Inhibition of aldose reductase activity) | inhibition at 10 µM (aldose reductase; [4]) | inhibition at 1 µM (aldose reductase; [4]) | inhibition at 0.1 µM (aldose reductase; [4]) | aldose reductase inhibition (in words) (aldose reductase) | inhibition at 0.01 µM (aldose reductase; 10^-8 M, partially purified enzyme from human placenta, read-out: Percent Inhibition of aldose reductase activity) | SMILES | lowering sorbitol levels in the sciatic nerve and lens of diabetic subjects (in words) [1] | reduction in the accumulated sorbitol levels in the sciatic nerve [2, 5] | inhibition of the formation of sorbitol levels in the sciatic nerve (in words) [2, 6] | reduction in the accumulated sorbitol levels in the lens [3, 5] | inhibition of the formation of sorbitol levels in the lens (in words) [3, 6] |
| --- | --- | --- | --- | --- | --- | --- | --- | --- | --- | --- | --- |
| 100% | 59% | 17% | 6% | potent aldose reductase inhibitors |  | O=C1NC(=O)C(N2C(=O)c3cccc4cccc(c34)C2=O)N1 (stereo not shown) [Example 1, 5-naphthalimido-imidazolidine-2,4-dione] | effective in lowering sorbitol levels |  |  |  |  |
|  | 91% | 86% | 72% | potent aldose reductase inhibitors | 20% | O=C1NC(=O)C(c2nn(Cc3ccc(Br)cc3F)c(=O)c3ccccc23)N1 (stereo not shown) [Example 4, 5-[3-(4'-bromo-2'-fluorobenzyl)-3,4-dihydro-4-oxophthalazin-1-yl]-imidazolidine-2,4-dione] | effective in lowering sorbitol levels | 61% | to a significantly high degree | 36% | to a significantly high degree |
